Here are results for four compounds from US5753704A, “Therapeutic compositions comprising unsaturated dioic acids or derivatives thereof” (Unichema Chemie B.V., priority 1992, dated 1998).

SMILES strings stand for the structures. “Also recorded” adds a separate entry of the source.

In one assay the test system is P. ACNES ATCC 25746. Briefly: MIC's for long chain dioic acids against P. acnes (Table 4). Format: cell-based, Propionibacterium acnes. Particulars: for MIC: P. acnes ATCC 25746. As for the experimental part: (§1) The Minimum Inhibitory Concentration (MIC) of each of various unsaturated dicarboxylic acid mixtures was determined in the presence and absence of 10% Intralipid (Kabi Pharmacia, Inc.) using the agar dilution technique for susceptibility of 32 strains of Propionibacterium acnes and of 32 strains of various genera of aerobic bacteria. The method was as set out below.
(§2) A 5% stock solution for each agent was prepared by adding 10 grams of the dioic acid material to 200 milliliters of double strength Tryptic Soy Broth (TSB), (Baltimore Biological Laboratories). The pH of each solution was adjusted to 7.0±0.2 with sodium hydroxide.
(§3) For each organic acid two sets of 200 ml capacity bottle/flasks were numbered 1 to 9. To each bottle was added 50 cc of double strength TSB. From the 5% stock solution, 50 cc of TSB were transferred to bottles #1 and #2. Serial transfers of 50 cc are made from bottle #2 through to bottle #8. Bottle #9 of each set contained only 50 cc of double strength TSB, without any dicarboxylic acid. To all 18 bottles were added 2 grams of granulated agar (BBL).
(§4) All bottles were autoclaved at 121° C., 15 psi for 15 minutes and then held at 50° C. in a water bath.
(§5) To one set of bottles #1-9 were added 50 cc of hot, sterile water. The bottles were swirled to mix the contents and 25 cc was poured into each of four petri dishes and allowed to solidify. To the second set of bottles were added 50 cc of Intralipid (pre-warmed to 50° C). The contents were then mixed and poured as above. Standard inocula of the test organisms were prepared by matching the bacterial suspension in 0.85% PSS (physiological saline solution) to a 0.5 McFarland Standard and diluting ten-fold to yield 10^7 CFU (colony forming units). The inocula were loaded into 32 wells of a steers replicator. The multi-prong inoculator delivers 0.001 to 0.002 cc resulting in a final inoculum of 10^4 CFU per spot.
Plates were inoculated from the lowest to highest concentration (to reduce the effects of "carry-over" of the inoculum), and allowed to dry. The plates were then inverted and incubated at 35° C. for 24 hours. […]
(§6) The agent-free control plates (#9) were examined at the end of the incubation for viability and signs of contamination. End-point MIC values were determined by observing the plate of lowest concentration of agent that inhibited visible micro-organism growth.
A similar experiment was performed, using the same method, to compare the degree of inhibitory activity (for P. acnes) of azelaic acid, the C18:1 dioic acid (obtained from a substrate comprising oleic acid), a mixture of C18.1 fatty (mono-carboxylic) acid, the corresponding C18:1 and C18:2 dioic acids (obtained from a substrate comprising Linoleic acid), and the C16:1 dioic acid (obtained from a substrate comprising palmitoleic acid). The MICs for azelaic acid and the C18.1 dioic acid were essentially as before, confirming the previous results. The corresponding fatty acid had very little activity.
In experiment 4, the degree of inhibition of the azelaic acid control, and therefore of the test samples also, was slightly less than that observed in previous experiments.

In the next assay the test system is Candida albicans. The experiment in a line: MIC, agar dilution technique (Table 3). Format: cell-based. As to conditions: Candida albicans ATCC 18804. In general terms: In agar dilution the substance is mixed into plates at graded concentrations.
Another assay relates to Pseudomonas aeruginosa. The experiment in a line: MIC, agar dilution technique (Table 3). Format: cell-based. Particulars: Pseudomonas aeruginosa ATCC 27853. The procedure: as §1, §2, §3, §4, §5
(§7) Plates were inoculated from the lowest to highest concentration (to reduce the effects of "carry-over" of the inoculum), and allowed to dry. The plates were then inverted and incubated at 35° C. for 24 hours. Plates inoculated with Propionibacterium acnes strains were incubated under anaerobic conditions for seven days at 35° C.
as §6

Another assay deals with Micrococcus luteus. Briefly: MIC, agar dilution technique (Table 3). Format: cell-based. The procedure: as §1, §2, §3, §4, §5, §7, §6
The subject of assay [1] is Brevibacterium epidermidis. The experiment in a line: MIC, agar dilution technique (Table 3). Format: cell-based. The procedure:
as §1, §2, §3, §4, §5, §7, §6

In assay [2] the test system is Corynebacterium minutissium. Briefly: MIC, agar dilution technique (Table 3). The assay is classed as cell-based. The procedure: as §1, §2, §3, §4, §5, §7, §6
The next assay deals with Propionibacterium acnes. The experiment in a line: MIC, agar dilution technique (Table 3). The assay is classed as cell-based. The procedure:
as §1, §2, §3, §4, §5, §7, §6

In a further assay the test system is Escherichia coli. The experiment in a line: MIC, agar dilution technique (Table 3). The assay is classed as cell-based. Particulars: Escherichia coli ATCC 25922. As for the experimental part: as §1, §2, §3, §4, §5, §7, §6
Another assay deals with Micrococcus sedentarius. The experiment in a line: MIC, agar dilution technique (Table 3). As to conditions: Micrococcus sedentarius ATCC 27574. The assay is classed as cell-based. As for the experimental part: as §1, §2, §3, §4, §5, §7, §6
A further assay relates to Staphylococcus aureus. The experiment in a line: MIC, agar dilution technique (Table 3). Format: cell-based. The procedure: as §1, §2, §3, §4, §5, §7, §6
In assay [3] the test system is Staphylococcus epidermidis. Briefly: MIC, agar dilution technique (Table 3). The assay is classed as cell-based. As for the experimental part: as §1, §2, §3, §4, §5, §7, §6
The test system of assay [4] is 32 strains of Propionibacterium acnes and 32 strains of various genera of aerobic bacteria. Briefly: Antimicrobial activity, summary over the range of micro-organisms. Format: cell-based. The procedure:
as §1, §2
For each organic acid two sets of 200 ml capacity bottle/flasks were numbered 1 to 9. To each bottle was added 50 cc of double strength TSB. From the 5% stock solution, 50 cc of TSB were transferred to bottles #1 and #2. Serial transfers of 50 cc are made from bottle #2 through to bottle #8. Bottle #9 of each set contained only 50 cc of double strength TSB, without any dicarboxylic acid. To all 18 bottles were added 2 grams of granulated agar (BBL). […]
The agent-free control plates (#9) were examined at the end of the incubation for viability and signs of contamination. End-point MIC values were determined by observing the plate of lowest concentration of agent that inhibited visible micro-organism growth. […]

The test system of another assay is thioredoxin reductase. As to conditions: cited from earlier work.
The mark [5] stands for this setting: Expt. 4, increased incubation period of 18 days.
Where [6] appears, read: Brevibacterium epidermidis ATCC 35514.
[7] abbreviates: Brevibacterium epidermidis NCDO 2285.
[8] abbreviates: Corynebacterium minutissium ATCC 23347.
The mark [9] stands for this setting: Corynebacterium minutissium ATCC 23348.
[10] abbreviates: Corynebacterium minutissium ATCC 23349.
Where [11] appears, read: Propionibacterium acnes ATCC 6919.
Where [12] appears, read: Propionibacterium acnes ATCC 29399.
The mark [13] stands for this setting: Staphylococcus aureus ATCC 25923.
Setting [14] is: Staphylococcus aureus ATCC 29213.
The mark [15] stands for this setting: Staphylococcus aureus ATCC 35556.
Setting [16] is: Staphylococcus epidermidis ATCC 14490.
The mark [17] stands for this setting: Staphylococcus epidermidis ATCC 31432.
The mark [18] stands for this setting: Staphylococcus epidermidis ATCC 35894.

As to `O=C(O)CCCCCCC/C=C\CCCCCCCC(=O)O` [C18:1 dioic acid ex Oleic acid], the MIC with P. ACNES ATCC 25746 (Expt. 1, incubation 7 days) is reported as 0.04%; in the assay on P. ACNES ATCC 25746 (Expt. 2, incubation 7 days), 0.04%; in the assay on P. ACNES ATCC 25746 (Expt. 3, incubation 7 days), 0.04%; in the assay on P. ACNES ATCC 25746 (setting [5]), 0.08%; with Candida albicans it was > 2.5%; in the assay with Candida albicans (+ "Intralipid"), > 2.5%. The MIC against Pseudomonas aeruginosa is reported as > 2.5%; with Pseudomonas aeruginosa (+ "Intralipid") it was > 2.5%; in the assay on Micrococcus luteus (Micrococcus luteus ATCC 9341), 0.15%; with Micrococcus luteus (Micrococcus luteus ATCC 9341, + "Intralipid") it was 0.07%; with Micrococcus luteus (Micrococcus luteus ATCC 15957), 0.15%; in the assay on Micrococcus luteus (Micrococcus luteus ATCC 15957, + "Intralipid"), 0.07%. Also, the MIC is listed as 0.15% in the assay with Micrococcus luteus (Micrococcus luteus ATCC 27141); 0.07% in the assay on Micrococcus luteus (Micrococcus luteus ATCC 27141, + "Intralipid"); 0.15% in [1] (setting [6]); 0.15% in assay [1] (Brevibacterium epidermidis ATCC 35514, + "Intralipid"); 0.15% in assay [1] (setting [7]); 0.15% in assay [1] (Brevibacterium epidermidis NCDO 2285, + "Intralipid"). Moreover, the MIC in assay [2] (setting [8]) was 0.15%; in assay [2] (Corynebacterium minutissium ATCC 23347, + "Intralipid"), 0.15%; in [2] (setting [9]), 0.15%; in [2] (Corynebacterium minutissium ATCC 23348, + "Intralipid"), 0.15%; in assay [2] (setting [10]) it was 0.15%; in assay [2] (Corynebacterium minutissium ATCC 23349, + "Intralipid"), 0.15%. Also, the MIC is on record as 0.04% with Propionibacterium acnes (setting [11]); 0.02% in the assay with Propionibacterium acnes (Propionibacterium acnes ATCC 6919, + "Intralipid"); 0.04% in the assay on Propionibacterium acnes (setting [12]); 0.02% with Propionibacterium acnes (Propionibacterium acnes ATCC 29399, + "Intralipid"); > 2.5% against Escherichia coli; > 2.5% in the assay on Escherichia coli (+ "Intralipid"). Moreover, the MIC against Micrococcus sedentarius is 0.15%; in the assay on Micrococcus sedentarius (+ "Intralipid"), 0.07%; in the assay with Staphylococcus aureus (setting [13]), 0.07%; in the assay with Staphylococcus aureus (Staphylococcus aureus ATCC 25923, + "Intralipid") it was 0.15%; against Staphylococcus aureus (setting [14]) it was 0.15%; in the assay on Staphylococcus aureus (Staphylococcus aureus ATCC 29213, + "Intralipid") it was 0.31%. Moreover, the MIC with Staphylococcus aureus (setting [15]) is listed as 0.07%; in the assay with Staphylococcus aureus (Staphylococcus aureus ATCC 35556, + "Intralipid"), 0.31%; in assay [3] (setting [16]) it was 0.31%; in [3] (Staphylococcus epidermidis ATCC 14490, + "Intralipid") it was 0.31%; in assay [3] (setting [17]), 0.31%; in assay [3] (Staphylococcus epidermidis ATCC 31432, + "Intralipid"), 0.31%. The MIC in assay [3] (setting [18]) is listed as 0.31%; in [3] (Staphylococcus epidermidis ATCC 35894, + "Intralipid") it was 0.31%. Further, the “activity relative to azelaic acid” value in the assay on P. ACNES ATCC 25746 (P. acnes, fold of the activity of azelaic acid) is ~100 ×. The “effect of the presence or absence of "Intralipid" on MIC” value in assay [4] (10% Intralipid, listed as C18:1 mono-unsaturated compound) was “increased the MIC for taph. aureus; also recorded: decreased the MIC for P. acnes and M. luteus”. Moreover, in [4] (Table 3 micro-organisms), the “anti-microbial activity compared with azelaic acid” value is reported as “many times greater than that for azelaic acid”.
As to `CCCCCCCC/C=C\CCCCCCCC(=O)O` [C18:1 Fatty acid, oleic acid, reference compound], the “inhibitory activity compared with azelaic acid” value with P. ACNES ATCC 25746 (P. acnes) is reported as “less active than azelaic acid”. Besides, the MIC with P. ACNES ATCC 25746 (Expt. 3, incubation 7 days) is listed as > 5%.
In the assay on P. ACNES ATCC 25746 (setting [5]), `O=C(O)CCCCCC=CCCCCCCCC(=O)O` [C16:1 dioic acid ex Palmitoleic acid] had an MIC of 0.16%.
`O=C(O)CCCCCCCC(=O)O` [Azelaic acid, azelaic acid, reference compound]: the MIC against P. ACNES ATCC 25746 (Expt. 1, incubation 7 days) is recorded as 5%; in the assay on P. ACNES ATCC 25746 (Expt. 2, incubation 7 days), 5%; with P. ACNES ATCC 25746 (Expt. 3, incubation 7 days) it was 5%; with P. ACNES ATCC 25746 (setting [5]) it was > 5%; against Candida albicans, > 2.5%; with Pseudomonas aeruginosa, > 2.5%. Also, the MIC against Micrococcus luteus (Micrococcus luteus ATCC 9341) is given as > 2.5%; in the assay with Micrococcus luteus (Micrococcus luteus ATCC 15957) it was > 2.5%; against Micrococcus luteus (Micrococcus luteus ATCC 27141), 2.5%; in assay [1] (setting [6]), > 2.5%; in assay [1] (setting [7]) it was > 2.5%; in [2] (setting [8]) it was > 2.5%. In addition, the MIC was > 2.5% in assay [2] (setting [9]); > 2.5% in [2] (setting [10]); 1.25% in the assay on Propionibacterium acnes (setting [11]); 1.25% in the assay on Propionibacterium acnes (setting [12]); 2.5% against Escherichia coli; 2.5% in the assay on Micrococcus sedentarius. The MIC against Staphylococcus aureus (setting [13]) was 2.5%; against Staphylococcus aureus (setting [14]) it was 2.5%; with Staphylococcus aureus (setting [15]), 2.5%; in assay [3] (setting [16]), > 2.5%; in assay [3] (setting [17]) it was > 2.5%; in assay [3] (setting [18]), > 2.5%. The “inhibition of thioredoxin reductase” value with thioredoxin reductase is “inhibits thioredoxin reductase”.
